Source: PubChem BioAssay (NCI)
Where “and” joins values, the source holds several entries; their conditions need not be identical. Identical values can stand only once.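 All cell lines were grown in 96-well plates and treated with compound for 48 hours. Here, GI50 denotes the concentration required for 50% inhibition of growth. TGI: concentration producing complete growth inhibition.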 *1 amine or outer side, *2 acyl side, *3 side chain or, on linkers, in order; H or OH if unused. Where a SMILES comes first, the peptide text is derived from it. Bridges are numbered along the chain shown (N, C = ends). Roman numbers before positions name the chains, in order. [ ]: non-standard residue; d: D form. Actinocin(9to1) = Cc1c2oc3c(C)ccc(C(=O)[*:1])c3nc-2c(C(=O)[*:2])c(N)c1=O; NMeV = CN[CH](C(=O)O)C(C)C; Sar = CNCC(=O)O

Tests used:
Assay in all cases: inhibition of tumour cell growth, NCI panel, 48 h
A498 renal = system: A498 renal
ACHN renal = system: ACHN renal
HCT-15 colon = system: HCT-15 colon
M14 melanoma = system: M14 melanoma
MOLT-4 leukemia = system: MOLT-4 leukemia
PC-3 prostate = system: PC-3 prostate
SF-539 CNS = system: SF-539 CNS
SK-OV-3 ovarian = system: SK-OV-3 ovarian
U251 CNS = system: U251 CNS
HS 578T breast = system: HS 578T breast

COc1ccc(-n2c(=O)c3[nH]c(=S)[nH]c3n(-c3ccc(OC)cc3)c2=S)cc1
TGI (A498 renal): > 100 µM
TGI (ACHN renal): > 100 µM
TGI (HCT-15 colon): > 100 µM
TGI (M14 melanoma): > 100 µM
TGI (MOLT-4 leukemia): > 100 µM
TGI (PC-3 prostate): > 100 µM
TGI (SF-539 CNS): > 100 µM
TGI (SK-OV-3 ovarian): > 100 µM
TGI (U251 CNS): > 100 µM

C#CC[C@@]12CC(=O)C[C@@H]1CCC1(C2)OCCO1 (tested in a mixture with another compound)
TGI (A498 renal): > 100 µM
TGI (HCT-15 colon): > 100 µM
TGI (MOLT-4 leukemia): > 100 µM
TGI (SF-539 CNS): > 100 µM
TGI (SK-OV-3 ovarian): > 100 µM
TGI (U251 CNS): > 100 µM

COc1ccc(C2C3=C(N=C4SC(C(C)=O)=C(C)N42)c2ccccc2CC3)cc1 (stereo unspecified)
TGI (A498 renal): > 100 µM
TGI (ACHN renal): > 100 µM
TGI (HCT-15 colon): > 100 µM
TGI (HS 578T breast): > 100 µM
TGI (M14 melanoma): > 100 µM
TGI (PC-3 prostate): > 100 µM
TGI (SF-539 CNS): > 100 µM
TGI (SK-OV-3 ovarian): > 100 µM
TGI (U251 CNS): > 100 µM

COc1ccc(C#Cn2nnc3ccccc32)cc1
TGI (A498 renal): > 100 µM
TGI (ACHN renal): > 100 µM
TGI (HCT-15 colon): > 100 µM
TGI (HS 578T breast): > 100 µM
TGI (M14 melanoma): > 100 µM
TGI (MOLT-4 leukemia): > 100 µM
TGI (PC-3 prostate): > 100 µM
TGI (SF-539 CNS): > 100 µM
TGI (U251 CNS): > 100 µM

CC[C@@]1(O)C(=O)OCc2c1cc1n(c2=O)Cc2c-1nc1ccc(O)cc1c2[Si](C)(C)C(C)(C)C
TGI (HCT-15 colon): 8.81 µM
TGI (HS 578T breast): > 57.9 µM
TGI (M14 melanoma): < 0.0114 µM
TGI (MOLT-4 leukemia): 0.106 µM
TGI (PC-3 prostate): 2.9 µM
TGI (SF-539 CNS): < 0.01 µM
TGI (SK-OV-3 ovarian): > 53 µM
TGI (U251 CNS): 0.0192 µM

O=C1c2cc(Cc3ccccc3)c(=O)c(Cc3ccccc3)cc2C(=O)c2cc(Cc3ccccc3)c(=O)c(Cc3ccccc3)cc21
TGI (A498 renal): > 100 µM
TGI (ACHN renal): > 100 µM
TGI (HCT-15 colon): > 100 µM
TGI (HS 578T breast): > 100 µM
TGI (M14 melanoma): > 100 µM
TGI (MOLT-4 leukemia): > 100 µM
TGI (PC-3 prostate): > 100 µM
TGI (SF-539 CNS): > 100 µM
TGI (U251 CNS): > 100 µM

CN1CCN(Cc2c[nH]c3c2C(=O)c2c(c(O)c4ccccc4c2O)C3=O)CC1
GI50 (ACHN renal): 11.3 µM
TGI (ACHN renal): 23.5 µM
GI50 (HCT-15 colon): 3.46 µM
TGI (HCT-15 colon): 15.6 µM
GI50 (HS 578T breast): 17 µM
TGI (HS 578T breast): 32.8 µM
GI50 (M14 melanoma): 1.79 µM
TGI (M14 melanoma): 5.12 µM
GI50 (MOLT-4 leukemia): 4.02 µM
TGI (MOLT-4 leukemia): > 100 µM
GI50 (PC-3 prostate): 5.53 µM
TGI (PC-3 prostate): 21.6 µM
GI50 (SK-OV-3 ovarian): 28.4 µM
TGI (SK-OV-3 ovarian): 55.2 µM
GI50 (U251 CNS): 11.1 µM
TGI (U251 CNS): 27.9 µM

COC(C/C(=C/CO[Si](C(C)C)(C(C)C)C(C)C)C(=O)N(COCC[Si](C)(C)C)c1ccccc1I)OC
TGI (A498 renal): > 100 µM
TGI (ACHN renal): > 100 µM
TGI (HCT-15 colon): > 100 µM
TGI (HS 578T breast): > 100 µM
TGI (M14 melanoma): > 100 µM
TGI (MOLT-4 leukemia): > 100 µM
TGI (PC-3 prostate): 83.6 µM
TGI (SK-OV-3 ovarian): > 100 µM
TGI (U251 CNS): 94.8 µM

Cc1c2oc3c(C)ccc(C(=O)NC4C(=O)NC(Cc5ccccc5)C(=O)N5CCCC5C(=O)N(C)CC(=O)N(C)C(C(C)C)C(=O)OC4C)c3nc-2c(C(=O)NC2C(=O)NC(Cc3ccccc3)C(=O)N3CCCC3C(=O)N(C)CC(=O)N(C)C(C(C)C)C(=O)OC2C)c(N)c1=O (stereo unspecified) (I: TFP[Sar][NMeV] / II: TFP[Sar][NMeV]; ester I:1-I:C, II:1-II:C; linker I:N-II:N via Actinocin(9to1); configuration not given here)
TGI (A498 renal): 0.0244 µM
TGI (ACHN renal): 1.21 µM and 1.98 µM
GI50 (HCT-15 colon): 0.017 µM
TGI (HS 578T breast): 0.0472 µM and 0.055 µM
GI50 (M14 melanoma): < 0.001 µM
TGI (M14 melanoma): 0.0399 µM and 0.0936 µM
TGI (MOLT-4 leukemia): < 0.001 µM
GI50 (SF-539 CNS): < 0.001 µM
TGI (SK-OV-3 ovarian): 0.524 µM
TGI (U251 CNS): 1.06 µM and 1.26 µM

Cc1nc2cc(F)c(F)cc2[nH]c1=O
TGI (ACHN renal): > 100 µM
TGI (HCT-15 colon): > 100 µM
TGI (HS 578T breast): > 100 µM
TGI (M14 melanoma): > 100 µM
TGI (MOLT-4 leukemia): > 100 µM
TGI (PC-3 prostate): > 100 µM
TGI (SF-539 CNS): > 100 µM
TGI (SK-OV-3 ovarian): > 100 µM
TGI (U251 CNS): > 100 µM

Cc1cc(C)c2c(c1)CC1(Cc3cc(C)c(C)cc3C1=O)C2=O (stereo unspecified)
TGI (A498 renal): > 100 µM
TGI (ACHN renal): > 100 µM
TGI (HCT-15 colon): > 100 µM
TGI (HS 578T breast): > 100 µM
TGI (M14 melanoma): > 100 µM
TGI (MOLT-4 leukemia): > 100 µM
TGI (PC-3 prostate): > 100 µM
TGI (SF-539 CNS): > 100 µM
TGI (U251 CNS): > 100 µM

C#C[C@]1(O)CC[C@H]2[C@@H]3CCC4=C/C(=N/NC(=O)c5cccc6c(=O)c7ccccc7[nH]c56)CCC4[C@H]3CC[C@@]21C (stereo partly specified)
TGI (ACHN renal): > 100 µM
TGI (HCT-15 colon): > 100 µM
TGI (HS 578T breast): > 100 µM
TGI (M14 melanoma): > 100 µM
TGI (MOLT-4 leukemia): > 100 µM
TGI (PC-3 prostate): > 100 µM
TGI (SF-539 CNS): > 100 µM
TGI (SK-OV-3 ovarian): > 100 µM
TGI (U251 CNS): > 100 µM

O=C(O)CCC(=O)OCN1C(=O)C2C3C=CC(C2C1=O)C1C2C(=O)N(COC(=O)CCC(=O)O)C(=O)C2C31 (stereo unspecified)
TGI (A498 renal): > 100 µM
TGI (ACHN renal): > 100 µM
TGI (HCT-15 colon): > 57 µM
TGI (M14 melanoma): > 100 µM
TGI (MOLT-4 leukemia): > 100 µM
TGI (SF-539 CNS): > 100 µM
TGI (SK-OV-3 ovarian): > 100 µM
TGI (U251 CNS): > 100 µM

CC1CC[C@@]2(OC1)O[C@H]1[C@H](O)[C@H]3[C@@H]4CC[C@H]5C[C@@H](OC6OC(CO)C(OC7OC(CO)C(O)C(OC8OCC(O)C(O)C8O)C7OC7OC(CO)C(O)C(O)C7OC7OC(CO)C(O)C(O)C7O)C(O)C6O)[C@H](O)C[C@]5(C)[C@H]4CC[C@]3(C)[C@H]1[C@@H]2C (stereo partly specified)
TGI (A498 renal): > 10 µM
TGI (ACHN renal): > 10 µM
TGI (HCT-15 colon): > 10 µM
TGI (HS 578T breast): > 10 µM
TGI (M14 melanoma): > 10 µM
TGI (MOLT-4 leukemia): 1.19 µM
TGI (PC-3 prostate): 7.84 µM
TGI (SF-539 CNS): > 10 µM
TGI (U251 CNS): > 10 µM

N#CC1(C#N)C(C#N)(C#N)C1(C#N)C(N)=O
TGI (A498 renal): > 100 µM
TGI (ACHN renal): > 100 µM
TGI (HCT-15 colon): > 100 µM
TGI (HS 578T breast): > 100 µM
TGI (M14 melanoma): > 100 µM
TGI (MOLT-4 leukemia): > 100 µM
TGI (PC-3 prostate): > 100 µM
TGI (SK-OV-3 ovarian): > 100 µM
TGI (U251 CNS): > 100 µM

Nc1cc2c(c3ccccc13)C(CCl)CN2C(=O)c1cc2cc(NC(=O)Nc3ccc4[nH]c(C(=O)N5CC(CCl)c6c5cc(N)c5ccccc65)cc4c3)ccc2[nH]1 (stereo unspecified)
TGI (A498 renal): 0.832 µM
TGI (HCT-15 colon): > 32.3 µM
TGI (HS 578T breast): 12.3 µM
TGI (M14 melanoma): 0.644 µM
TGI (PC-3 prostate): 12.8 µM
TGI (SF-539 CNS): 1.11 µM
TGI (SK-OV-3 ovarian): > 24.3 µM

COC(=O)c1ccccc1C1CN=NC12Cc1c(ccc3c1CCC3)C2=O (stereo unspecified)
TGI (ACHN renal): > 100 µM
TGI (HCT-15 colon): > 100 µM
TGI (HS 578T breast): > 100 µM
TGI (M14 melanoma): > 100 µM
TGI (MOLT-4 leukemia): > 100 µM
TGI (PC-3 prostate): > 100 µM
TGI (SF-539 CNS): > 100 µM
TGI (SK-OV-3 ovarian): > 100 µM
TGI (U251 CNS): > 100 µM

CCC1(O)CC(OC2CC(N(C)C)C(OC3CC(O)C(OC4OC(C)C(=O)C=C4N)C(C)O3)C(C)O2)c2c(cc3c(c2O)C(=O)c2c(O)cccc2C3=O)C1C(=O)OC (stereo unspecified)
TGI (ACHN renal): 0.312 µM and 0.895 µM
GI50 (HCT-15 colon): 0.471 µM
TGI (HCT-15 colon): 1.66 µM and 11.8 µM
GI50 (HS 578T breast): 0.0579 µM
TGI (HS 578T breast): 0.594 µM and 4.1 µM
TGI (M14 melanoma): 0.656 µM
TGI (PC-3 prostate): 0.333 µM and 1.1 µM
TGI (SF-539 CNS): 0.502 µM and 1.4 µM
TGI (SK-OV-3 ovarian): 2.51 µM and 4.32 µM
TGI (U251 CNS): 1.5 µM and 1.55 µM

Cc1cc2[nH]c3c(C#N)c(-c4ccccc4)c(N=Nc4ccc(F)cc4)c(=O)n3c2cc1C
TGI (A498 renal): > 100 µM
TGI (ACHN renal): > 100 µM
TGI (HCT-15 colon): > 100 µM
TGI (M14 melanoma): > 100 µM
TGI (PC-3 prostate): > 100 µM
TGI (SF-539 CNS): > 100 µM
TGI (SK-OV-3 ovarian): > 100 µM
TGI (U251 CNS): > 100 µM

CN(Cc1cnc2nc(N)nc(N)c2n1)c1ccc(C(=O)NC23CC4CC(CC(C4)C2)C3)cc1
TGI (A498 renal): > 100 µM
TGI (ACHN renal): 11.5 µM
TGI (HCT-15 colon): 16.6 µM
TGI (HS 578T breast): 31.9 µM
TGI (M14 melanoma): 18.4 µM
TGI (MOLT-4 leukemia): 48.5 µM
TGI (PC-3 prostate): 19 µM
TGI (SK-OV-3 ovarian): 31.9 µM
TGI (U251 CNS): 44.3 µM
